Assays:
M. tuberculosis H37Rv = assay: In vitro macrophage infection model, H37Rv, CFU analysis; assay type: cell-based, Mycobacterium tuberculosis; settings: infected Raw 264.7 cells, 3 days
M. tuberculosis = assay: Lung granuloma formation and immune response analysis in both tuberculosis mouse models; assay type: in vivo, Mycobacterium tuberculosis
[1] = tested on: M. tuberculosis XDR strain; assay type: cell-based, Mycobacterium tuberculosis; settings: infected Raw 264.7 cells, 3 days; effect only at this very high concentration
[2] = tested on: M. tuberculosis XDR strain; assay type: in vivo, Mycobacterium tuberculosis
[3] = tested on: M. tuberculosis XDR strain; assay type: in vivo, Mycobacterium tuberculosis; settings: latent model, 30 mg/kg

Molecule | concentration showing significant effects against H37Rv (M. tuberculosis H37Rv) | granuloma formation in the lungs compared to infected control mice (M. tuberculosis) | concentration with inhibitory effect against XDR strains [1] [µg/mL] | lung species diversity (Shanon-based alpha diversity) ([2]; in vivo) | occupancy of M. tuberculosis in the lungs (16S rRNA gene-based lung metagenomics) compared to the infected control group ([2]; in vivo) | survival rate ([2]; in vivo) [%] | effect on number of M. tuberculosis in the lungs [3] | mortality / survival until the end of the experiment ([2]; Balb/c mice, high-dose XDR lung inhalation, probiotics by lung inhalation)
NNC(=O)c1ccncc1 [INH, isoniazid] | 1 μg/mL or 10 μg/mL | no significant reduction | 100 | worsened the severity | did not decrease | 16.6 | significantly reduced | 
CO[C@H]1/C=C/O[C@@]2(C)Oc3c(C)c(O)c4c(O)c(c(/C=N/N5CCN(C)CC5)c(O)c4c3C2=O)NC(=O)/C(C)=C\C=C\[C@H](C)[C@H](O)[C@@H](C)[C@@H](O)[C@@H](C)[C@H](OC(C)=O)[C@@H]1C [RIF, rifampicin] |  |  | 100 |  |  | 32.2 |  | 
Lactobacillus |  |  |  |  |  |  |  | died

Source: patent US20250127828A1, “BACILLUS […] AND COMPOSITION FOR PREVENTING, TREATING, OR IMPROVING TU[…] SAME” (priority 2023, published 2025)
